Experiment: physchem
Type: physicochemical
Conditions: pH 6

With O=C1NC(Cc2ccc(O)cc2)C(=O)NC1Cc1ccc(O)cc1 (stereo not shown) [cYY, 3,6-bis(4-hydroxybenzyl)piperazine-2,5-dione] the pKa was 9.9 ± 0.02.

Reference: paper PMC5765751 (Journal of the American Chemical Society, 2017)
